Experimental data as given in US20260294846A1, “COMPOSITIONS AND METHODS FOR TREATING VULVAR AND VAGINAL ATROPHY (VVA)” (Daré Bioscience, Inc., priority 2023, published 2026).
Entries after “also recorded” stand apart in the source; their conditions may differ.

How the values were obtained:
[1] = more potent than tamoxifen; cited from earlier work
[2] = Systemic plasma pharmacokinetics of tamoxifen and metabolites after intravaginal DARE-VVA1; set-up: species or system human (women); settings: human, in vivo, 20 mg
Source text: In each treatment group, participants will have serial blood sampling for PK analysis, with venous samples drawn from an indwelling line. Dense sampling will be performed following the Day 1 and Day 56 administrations of a tamoxifen vaginal insert; trough samples will be collected prior to dosing on Days 4, 7, 10, 18, 28, and 42, and a final sample will be collected at follow-up on Day 63. Samples will be analyzed using validated methods to determine plasma concentrations of tamoxifen and 3 metabolites: 4-hydroxytamoxifen, N-desmethyl-tamoxifen, and N-desmethyl-4-hydroxytamoxifen (endoxifen). […]
Samples will be analyzed using validated methods to determine plasma concentrations of tamoxifen and 3 metabolites: 4-hydroxytamoxifen, N-desmethyltamoxifen, and N-desmethyl-4-hydroxytamoxifen (endoxifen).
The PK characterization of tamoxifen concentrations for each dose to be profiled will use noncompartmental analysis (NCA). […] Standard PK parameters assessed will include measures of the extent of absorption using estimates of the area under the plasma concentration-time curve (AUC), the maximum observed drug concentration (Cmax), and the time to reach maximum drug concentration (Tmax). […]

[3] = cited from earlier work
[4] = tested on: female New Zealand White rabbits (vagina, uterus, ovary); experiment: Study 3015-012: 12-week intravaginal toxicity of tamoxifen in rabbits; format: in vivo, rabbit (New Zealand White)
Source text: (§1) Tamoxifen is a selective estrogen receptor modulator (SERM) which has species and tissue specific estrogen agonist and antagonist properties. Given orally in women, tamoxifen has estrogen antagonist activity in breast tissue and estrogen agonist effects in the endometrium and vagina. When administered vaginally in women, there is reduced systemic exposure leading to reduced systemic side effects. The objective of this pre-clinical study was to test the safety, pharmacokinetics (PK) and toxicity of vaginal tamoxifen over a 3 and 9 month treatment period in female New Zealand White rabbits.
(§2) All animal studies were conducted under IACUC approvals. In study 3015-012, at Charles River Labs (Mattawan, MI, USA), 45 female rabbits were randomly assigned to either sham (saline), placebo, or 5, 10 or 20 mg/kg/dose of vaginal tamoxifen. Investigational product (IP) was administered intravaginally once daily for 14 days, then twice weekly for up to 10 weeks with necropsy at 12-weeks. In study 858-0032-TX, conducted at WuXi AppTec (Suzhou, Jiangsu, China), 40 female rabbits were randomly assigned to sham (saline), placebo, or 10 or 30 mg/kg/dose of vaginal tamoxifen. IP was administered daily for 14 days and then twice weekly. An interim necropsy was performed at 26-weeks and then at 39-weeks.

[5] = tested on: vagina; experiment: Vaginal pH; format: in vivo, human (women)
Source text: Estrogenic effect measurements will include vaginal cytology (maturation index; percentage of basal and superficial cells) and vaginal pH at screening and baseline, every 2 weeks during treatment, and 1 week after treatment.
Vaginal swabs for determination of pH will be collected in accordance with the schedule of events (Table 4). The pH of vaginal secretions will be measured using pH paper.
Local estrogenic effect measurements included obtaining vaginal epithelial cells from the lateral vaginal sidewall and determining the VMI. The VMI is determined by categorizing the ratio (proportion in 100 cells) of the three types of vaginal epithelial cell types (parabasal, intermediate and superficial). A total VMI score was calculated as: % superficial cells+(0.5 x% intermediate cells)+(0 x % parabasal cells). The VMI and vaginal pH were measured at screening and baseline, and subsequently every 2 weeks during treatment and 1 week after treatment.

[6] = tested on: endometrium; settings: cited from earlier work
[7] = tested on: female New Zealand White rabbits (vagina, uterus, ovary); experiment: Study 858-0032-TX: 26/39-week intravaginal toxicity of tamoxifen in rabbits; format: in vivo, rabbit (New Zealand White)
Source text: as §1, §2

[8] = 20 mg/kg/day, 12 weeks, cranial and mid vagina
[9] = 20 mg/kg/day, 12 weeks, intravaginal
[10] = postmenopausal women, daily oral tamoxifen at least 4 years

4-hydroxytamoxifen [4-OHT]
Potency relative to tamoxifen [1]: approximately 100 ×

CC/C(=C(\c1ccccc1)c1ccc(OCCNC)cc1)c1ccccc1 [NDT, N-desmethyltamoxifen]
Systemic potency relative to tamoxifen [1]: approximately 1.7 ×

CC/C(=C(\c1ccc(O)cc1)c1ccc(OCCNC)cc1)c1ccccc1 [endoxifen, N-desmethyl-4-hydroxytamoxifen]
Potency relative to tamoxifen [1]: approximately 100 ×

CC/C(=C(\c1ccccc1)c1ccc(OCCN(C)C)cc1)c1ccccc1 [tamoxifen, 1-(p-dimethylamino-ethoxphenyl)-2-ethyl-1,2-diphenylethylene]
Cmax at 240 h ([2]; Day 10, read-out: Single maximum plasma tamoxifen concentration): 12 ng/mL | concentration at 240 h ([2]; Day 10 trough, read-out: Plasma tamoxifen, median): 8.29 ng/mL | Steady-state plasma concentration of NDT, range ([3]; 3 months oral daily 20 mg tamoxifen): 152 to 706 ng/mL | Mean steady-state concentration of tamoxifen ([3]; oral 20 mg dose): 122 ng/mL | Steady-state concentration of tamoxifen, range ([3]; oral 20 mg dose): 71-183 | Peak plasma concentration of NDT, range ([3]; oral tamoxifen): 10 to 20 ng/mL | Maximum plasma concentration of tamoxifen, range ([3]; single oral dose 20 mg): 35 to 45 ng/mL | Mean maximum plasma concentration of tamoxifen ([3]; single oral dose 20 mg): 40 ng/mL | Adverse effects ([4]; 20 mg dose, 12 weeks): no observed adverse effects | Vagina microscopy, atrophy [4, 8]: minimal to mild diffuse atrophy; also recorded: diffuse vaginal atrophy | Vagina microscopy, inflammatory cell infiltration [4, 8]: increased incidence and/or severity of minimal to mild mixed inflammatory cell infiltration; also recorded: increased incidence of vaginal mixed inflammatory cell infiltrates | Ovary microscopy [4, 9]: atrophy of interstitial glands; also recorded: increased incidence of ovarian interstitial gland atrophy with decreased weights | Paired ovary weights [4, 9]: decreases in the mean weights (absolute and relative to terminal body weight) | Uterus/cervix weights [4, 9]: decreases in the mean weights (absolute and relative to terminal body weight); also recorded: decreased uterine weights | Vaginal epithelial degeneration, erosion, ulceration ([4]; 12-week necropsy): no evidence of epithelial degeneration, erosion, or ulceration | Other parameters ([4]; 12 weeks): no observed tamoxifen-related adverse effects on any of the other parameters | Improvement in vaginal pH ([5]; 10 mg and 20 mg, 8-week treatment): most improvement in vaginal pH | Change in vaginal pH, baseline to end of treatment ([5]; all active doses combined, Day 56): statistically significant decreases in vaginal pH | Median end of treatment vaginal pH levels, range ([5]; end of treatment): 5.0-5.3 | Endometrial risk relative to general postmenopausal population [6, 10]: about two to three times that of the general postmenopausal population | Risk of complex hyperplasia [6, 10]: 3% | Risk of endometrial carcinoma [6, 10]: 2% | Risk of simple hyperplasia [6, 10]: approximately 12% | Risk of endometrial hyperplasia ([6]; premenopausal women, oral tamoxifen): no different than in the general premenopausal population | Adverse effects ([7]; 30 mg dose, 39 weeks): no observed adverse effects | Females affected by uterine atrophy ([7]; 30 mg/day, 26 weeks): Four of five | Ovary microscopy ([7]; 30 mg/kg/day, 26 weeks): moderate to marked atrophy of the interstitial cells in the ovary | Uterine and ovarian weights ([7]; 30 mg/kg/day, 26 weeks): Product-related uterine and ovarian weight decreases | Uterus microscopy ([7]; 30 mg/kg/day, 26 weeks): mild to moderate uterine atrophy | Macroscopic changes ([7]; 26 weeks, any treatment group): no IP related macroscopic changes | Systemic toxicity clinical findings ([7]; two studies, up to 39 weeks): no observed clinical findings which would be suspicious for systemic toxicity | Uterine or endometrial hyperplasia ([7]; two studies, up to 39 weeks): no evidence of uterine or endometrial hyperplasia | Local genital tract findings ([7]; vagina, uterus, ovary, up to 39 weeks): mostly organ atrophy
